Measurements reported in paper PMC5498579, “A novel function for globulin in sequestering plant hormone: Crystal structure of Wrightia tinctoria 11S globulin in complex with auxin” (Scientific Reports, 2017).

Molecular target: T1, Wrightia tinctoria 11S globulin (WTG) (Wrightia tinctoria, UniProt A0A162EGL7)
T1 construct: native purification from seeds; signal peptide (first 26 residues) removed; cleaved at Asn284-Gly285 into acidic and basic subunits joined by disulphide Cys120-Cys291; 18 C-terminal residues not seen; homohexamer
Test: X-ray crystal structure of complex ([…] Å); co-purified ligand identified by MALDI-MS and HRMS
Assay type: binding
Details: naturally bound ligand; three pockets at interface of four chains between two trimers; two alternate orientations, 0.5 occupancy; crystals at pH 8.5

T1 sequence (A0A162EGL7 entry or part of it): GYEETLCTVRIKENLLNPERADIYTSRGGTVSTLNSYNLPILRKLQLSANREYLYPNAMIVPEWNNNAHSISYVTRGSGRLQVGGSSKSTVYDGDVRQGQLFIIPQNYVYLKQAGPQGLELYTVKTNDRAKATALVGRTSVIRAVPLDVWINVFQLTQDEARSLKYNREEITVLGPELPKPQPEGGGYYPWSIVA
T1 sequence (A0A162EGL7 entry or part of it): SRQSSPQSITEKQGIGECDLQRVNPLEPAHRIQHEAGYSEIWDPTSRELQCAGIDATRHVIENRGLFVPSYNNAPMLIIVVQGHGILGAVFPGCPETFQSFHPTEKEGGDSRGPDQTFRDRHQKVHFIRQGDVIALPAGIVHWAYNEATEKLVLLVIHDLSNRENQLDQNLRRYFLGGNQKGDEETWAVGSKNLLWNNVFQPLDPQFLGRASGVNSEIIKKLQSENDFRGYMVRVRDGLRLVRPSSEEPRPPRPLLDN

O=C(O)Cc1c[nH]c2ccccc12 [Indole-3-acetic acid]
X-ray crystal structure of complex (1.7 Å); co-purified ligand identified by MAL: clearly revealed the presence of an IAA molecule in alternate orientation at the hydrophobic site
